The source of these data is patent US20190387748A1, “COMPOSITIONS AND RELATED METHODS FOR AGRICULTURE” (priority 2017, published 2019).

Entries after “also recorded” stand apart in the source; their conditions may differ.

For data set [1], the system named is Sitophilus zeamais weevils. The data set is described as follows: Weevil survival monitoring. The data set is classed as in vivo. As to conditions: adult S. zeamais mating pairs; 250 μg/ml or 2.5 mg/ml ciprofloxacin; 18 days.
Data set [2] concerns Sitophilus zeamais weevils. The data set is described as follows: Emergence of F1 weevils (fecundity). The settings on record: 2.5 mg/ml ciprofloxacin; till day 43.
In data set [3] the test system is Escherichia coli DH5α. As to conditions: kernels soaked in 2.5 or 0.25 mg/ml ciprofloxacin; overnight. How it is done:
The kernels were soaked for 1.5 hours as described herein. After soaking, kernels were air dried and assayed to determine whether the antibiotic was able to coat and penetrate the kernel. To test this, a concentrated sample of Escherichia coli DH5α in water was spread onto 5 Luria Broth (LB) plates. […] The plates were incubated overnight at 37 degrees C. and bacterial growth and/or zone(s) of inhibition were assessed the next day.
A concentrated culture of E. coli was then spread onto LB plates and one of the coated kernels was then placed onto the center of the plate. The plates were incubated overnight, and bacterial growth was assessed the next day.
The plates were incubated overnight and the next day bacterial growth was assessed.

Data set [4] concerns Sitophilus zeamais weevils. The data set is described as follows: Assessment of offspring: dissection of corn kernels (F1 weevil development). The settings on record: after 25 days. The data set is classed as in vivo.
In data set [5] the test system is Acyrthosiphon pisum aphids. Put plainly: Aphid survival monitoring. The data set is classed as in vivo. An excerpt:
For each treatment, 33 aphids were placed onto each leaf. Artificial diet feeding systems were changed every 2-3 days throughout the experiment. Aphids were monitored daily for survival and dead aphids were removed from the deep petri dish housing the artificial feeding system when they were discovered.
(§1) Each treatment group received approximately the same number of individuals from each of the collection plant. For each treatment, 20 aphids were placed onto each leaf. Aphids were monitored daily for survival and dead aphids were removed when they were discovered. In addition, the developmental stage (1st, 2nd, 3rd, 4th, 5th instar, and 5R, representing a reproducing 5th instar) was determined daily throughout the experiment. Pictures of aphids were taken throughout the experiment to evaluate size differences between treatment groups.
(Vroma vicia faba from Johnny's Selected Seeds) in a climate-controlled incubator (16 h light/8 h dark photoperiod; 60±5% RH; 25±2° C.). Prior to being used for aphid rearing, fava bean plants were grown in potting soil at 24° C. with 16 h of light and 8 h of darkness. To limit maternal effects or health differences between plants, 5-10 adults from different plants were distributed among 10 two-week-old plants, and allowed to multiply to high density for 5-7 days. For experiments, first and second instar aphids were collected from healthy plants and divided into 2 different treatment groups: 1) negative control (leaf injected with water plus blue food coloring) and 2) leaf injected with 50 μg/ml rifampicin in water plus blue food coloring. Each treatment group received approximately the same number of individuals from each of the collection plants. For treatment, rifampicin stock solution (25 mg/ml in 100% methanol) was diluted to 50 μg/ml in water plus blue food coloring. The solution was then placed into a 1.5 ml Eppendorf tube with a fava bean stem perfused with the solutions and the opening of the tube was closed using parafilm. This feeding system was then placed into a deep petri dish (Fisher Scientific, Cat# FB0875711) and aphids were applied to the leaves of the plant. For each treatment, 74-81 aphids were placed onto each leaf. The feeding systems were changed every 2-3 days throughout the experiment. Aphids were monitored daily for survival and dead aphids were removed from the deep petri dish when they were discovered. In addition, the developmental stage (1st, 2nd, 3rd, 4th, 5th and 5R (5th that has reproduced) instar) was determined daily throughout the experiment.
For each treatment, 49-50 aphids were placed onto each leaf. The feeding systems were changed every 2-3 days throughout the experiment. Aphids were monitored daily for survival and dead aphids were removed from the deep petri dish when they were discovered.
For each treatment, 76-80 aphids were placed onto each leaf. The feeding systems were changed every 2-3 days throughout the experiment. Aphids were monitored daily for survival and dead aphids were removed from the deep petri dish when they were discovered.
For each treatment, 50-51 aphids were placed onto each leaf. The feeding systems were changed every 2-3 days throughout the experiment. Aphids were monitored daily for survival and dead aphids were removed from the deep petri dish when they were discovered.
For each treatment, 56-59 aphids were placed onto each leaf. The feeding systems were changed every 2-3 days throughout the experiment. Aphids were monitored daily for survival and dead aphids were removed from the deep petri dish when they were discovered.
For each treatment, 57-59 aphids were placed onto each leaf. The feeding systems were changed every 2-3 days throughout the experiment. Aphids were monitored daily for survival and dead aphids were removed from the deep petri dish when they were discovered.
For each treatment, 15-87 aphids were placed onto each leaf. Artificial diet feeding systems were changed every 2-3 days throughout the experiment.

Data set [6] concerns Buchnera. Put plainly: qPCR of Buchnera/aphid DNA copy numbers (symbiont titer). The data set is classed as in vivo, Buchnera aphidicola. How it is done: After 7 days of treatment, DNA was extracted from multiple aphids from each treatment group. Briefly, the aphid body surface was sterilized by dipping the aphid into a 6% bleach solution for approximately 5 seconds. Aphids were then rinsed in sterile water and DNA was extracted from each individual aphid using a DNA extraction kit (Qiagen, DNeasy kit) according to manufacturer's instructions. DNA concentration was measured using a nanodrop nucleic acid quantification, and Buchnera and aphid DNA copy numbers were measured by qPCR.
After 6 days of treatment, DNA was extracted from multiple aphids from each treatment group and qPCR for quantifying Buchnera levels was done as described in the previous Example.
After 8 days of treatment, DNA was extracted from multiple aphids from each treatment group. Briefly, the aphid body surface was sterilized by dipping the aphid into a 6% bleach solution for approximately 5 seconds. Aphids were then rinsed in sterile water and DNA was extracted from each individual aphid using a DNA extraction kit (Qiagen, DNeasy kit) according to manufacturer's instructions. DNA concentration was measured using a nanodrop nucleic acid quantification, and Buchnera and aphid DNA copy numbers were measured by qPCR.
After 8 days of treatment, DNA was extracted from the remaining aphids in each treatment group. Briefly, the aphid body surface was sterilized by dipping the aphid into a 6% bleach solution for approximately 5 seconds. Aphids were then rinsed in sterile water and DNA was extracted from each individual aphid using a DNA extraction kit (Qiagen, DNeasy kit) according to manufacturer's instructions. DNA concentration was measured using a nanodrop nucleic acid quantification, and Buchnera and aphid DNA copy numbers were measured by qPCR.
(§2) Briefly, the aphid body surface was sterilized by dipping the aphid into a 6% bleach solution for approximately 5 seconds. Aphids were then rinsed in sterile water and DNA was extracted from each individual aphid using a DNA extraction kit (Qiagen, DNeasy kit) according to manufacturer's instructions. DNA concentration was measured using a nanodrop nucleic acid quantification, and Buchnera and aphid DNA copy numbers were measured by qPCR.
as §2
After 3 days of treatment, DNA was extracted from the remaining living aphids from each treatment group. Briefly, the aphid body surface was sterilized by dipping the aphid into a 6% bleach solution for approximately 5 seconds. Aphids were then rinsed in sterile water and DNA was extracted from each individual aphid using a DNA extraction kit (Qiagen, DNeasy kit) according to manufacturer's instructions. DNA concentration was measured using a nanodrop nucleic acid quantification, and Buchnera and aphid DNA copy numbers were measured by qPCR.
After 5 days of treatment, DNA was extracted from the remaining aphids in each treatment group. Briefly, the aphid body surface was sterilized by dipping the aphid into a 6% bleach solution for approximately 5 seconds. Aphids were then rinsed in sterile water and DNA was extracted from each individual aphid using a DNA extraction kit (Qiagen, DNeasy kit) according to manufacturer's instructions. DNA concentration was measured using a nanodrop nucleic acid quantification, and Buchnera and aphid DNA copy numbers were measured by qPCR.
At 5 days post-treatment, DNA was extracted from several aphids in each treatment group. Briefly, the aphid body surface was sterilized by dipping the aphid into a 6% bleach solution for approximately 5 seconds.

For data set [7], the system named is Acyrthosiphon pisum aphids. The data set is described as follows: Aphid developmental stage monitoring. The data set is classed as in vivo. How it is done: In addition, the developmental stage (1st, 2nd, 3rd, 4th, 5th instar) was determined daily throughout the experiment. Once an aphid reached the 4th instar stage, they were given their own artificial feeding system in a deep petri dish so that fecundity could be monitored once they reached adulthood.
as §1
(Vroma vicia faba from Johnny's Selected Seeds) in a climate-controlled incubator (16 h light/8 h dark photoperiod; 60±5% RH; 25±2° C.). Prior to being used for aphid rearing, fava bean plants were grown in potting soil at 24° C. with 16 h of light and 8 h of darkness. To limit maternal effects or health differences between plants, 5-10 adults from different plants were distributed among 10 two-week-old plants, and allowed to multiply to high density for 5-7 days. […] Aphids were monitored daily for survival and dead aphids were removed from the deep petri dish when they were discovered. In addition, the developmental stage (1st, 2nd, 3rd, 4th, 5th and 5R (5th that has reproduced) instar) was determined daily throughout the experiment.
In addition, the developmental stage (1st, 2nd, 3rd, 4th, 5th, and 5R (5th that has reproduced) instar) was determined daily throughout the experiment.
In addition, the developmental stage (1st, 2nd, 3rd, 4th, 5th, and 5R (5th instar aphids that are reproducing) instar) was determined daily throughout the experiment.
In addition, the developmental stage (1st, 2nd, 3rd, 4th, and 5th instar) was determined daily throughout the experiment.
In addition, the developmental stage (1st, 2nd, 3rd, 4th, 5th, and 5R (5th that has reproduced) instar) was determined daily throughout the experiment. Once an aphid reached the 4th instar stage, they were given their own artificial feeding system in a deep petri dish so that fecundity could be monitored once they reached adulthood.
For each treatment, 30 aphids were placed onto each leaf in triplicate. […] Aphids were monitored daily for survival and dead aphids were removed from the deep petri dish when they were discovered. In addition, the developmental stage (1st, 2nd, 3rd, 4th, 5th, and 5R (5th instar aphids that are reproducing) instar) was determined daily throughout the experiment. […]

In data set [8] the test system is gram-negative and gram-positive bacteria as well as fungi. As to conditions: cited from earlier work.
The conditions of data set [9]: synthetic cationic NCR peptides; cited from earlier work.

As to `O=C(O)c1cn(C2CC2)c2cc(N3CCNCC3)c(F)cc2c1=O` [ciprofloxacin], the Weevil survival result in data set [1] is given as “all weevils remained alive for the course of the experiment”. Besides, the F1 offspring emerged entry in data set [2] is on record as “much less offspring that emerged”. Moreover, in data set [3], the “E. coli growth on plates with entire soaked corn kernels” value is on record as “no bacteria grew”. In data set [4] (250 ug/ml ciprofloxacin), the “Number of offspring found in dissected corn kernels” value worked out at 13 and the “Offspring in the larval form” value was 38%. For the same compound, in [4] (2.5 mg/ml ciprofloxacin), the “Number of offspring found in dissected corn kernels” value was determined as 20 and the “Offspring in the larval form” value is reported as 65%.

In the case of `Cc1cc2c(C(C)C)c(O)c(O)c(C=O)c2c(O)c1-c1c(C)cc2c(C(C)C)c(O)c(O)c(C=O)c2c1O` [gossypol, gossypol acetic acid], in data set [5] (0.5% gossypol), the “Time by which all aphids succumbed to treatment” value is listed as no more than 4 days and the “Time of treatment after which aphids began dying” value was 2 days. Moreover, the “Fold less Buchnera/aphid DNA copies vs control” value in data set [6] (0.25 and 0.5% of gossypol, through plants, 5 or 13 days) is on record as roughly 4 fold.

For the compound `CC(=O)CCC(=O)O` [levulinic acid], the Aphid mortality result in data set [5] (0.03% levulinic acid, 11-day experiment) is reported as “higher mortality compared to control treated aphids, although the difference did not reach statistical significance”. The Insect survival entry in data set [5] (0.03 or 0.3% levulinic acid) is “decrease in insect survival”. For the same compound, in data set [5] (0.3% levulinic acid, 11-day experiment), the Aphid survival entry is “survival was significantly less”. Besides, the Aphid development entry in [7] (0.03 or 0.3% levulinic acid) is listed as “delayed aphid development”. Also, the “Fold less Buchnera/aphid DNA copies vs control” value in data set [6] (0.03 or 0.3% levulinic acid in water, 7 days of treatment) is reported as roughly 6 fold. Besides, the Buchnera/aphid ratio result in data set [6] (0.03 or 0.3% levulinic acid, seven and eleven days post-treatment) is recorded as “reduced endosymbiotic Buchnera”.

With `O=C/C=C/c1ccccc1` [trans-cinnemaldehyde], in [5] (0.05%, 0.5%, and 5% trans-cinnemaldehyde), the Aphid survival rate entry is on record as “dose-dependent decrease in survival; also recorded: significantly lower”. In addition, the Aphid developmental stage entry in data set [7] (LSR-1 1st and 2nd instar, 0.05%, 0.5%, 5% trans-cinnemaldehyde in water, leaf perfusion and through plants, by 3 days) is given as “delayed aphid development; also recorded: none of the aphids matured past the second instar stage”. For the same compound, the “Symbiont titer (Buchnera DNA to aphid DNA)” value in data set [6] (0.05%, 0.5%, and 5% trans-cinnemaldehyde, 3 days post-treatment) was “reduced endosymbiotic Buchnera”. In addition, the “Fold less Buchnera/aphid DNA copies vs control” value in data set [6] (0.5 and 5% of trans-cinnemaldehyde, 3 days) is given as roughly 870 fold. The “Buchnera/aphid DNA copies” value in [6] (lowest concentration of trans-cinnemaldehyde (0.5%), 3 days) was “high ratios of Buchnera/aphid DNA copies”.

On to “NCR335: cationic nodule C-rich peptide (RQMIILRLNTTFRPLNFKMLRFWGQ)”, for which the Antimicrobial activity result in data set [8] was “effective against gram-negative and gram-positive bacteria as well as fungi”. For the same compound, the pl in data set [9] was 11.22.
